“Also recorded” adds a separate entry of the source. The source made the active and inactive calls. The rule behind the calls is not given here.
Tested on: CCRIS mutagenicity, Ames/micronucleus/aberration tests
Assay: CCRIS mutagenicity studies

With `Nc1ccc([N+](=O)[O-])cc1N` the mutagenic call (End Point: IN VITRO CHROMOSOMAL ABERRATIONS, Test System: CHL CELLS, Metabolic Activation: RAT, LIVER, S-9, SODIUM PHENOBARBITAL AND 5,6-BENZOFLAVONE) was “inactive; negative; authors report equivocal results for structural changes at 0.75 , 1.5”, the mutagenic call (Test System: AMES SALMONELLA TYPHIMURIUM, Strain/Indicator: TA98(NR), Metabolic Activation: NONE, Method: PREINCUBATION) was “active; positive” and the mutagenic call (Test System: AMES SALMONELLA TYPHIMURIUM, Strain/Indicator: TA98(NR), Metabolic Activation: RAT, LIVER, S-9, AROCLOR 1254, Method: PREINCUBATION) was “active; positive”. The mutagenic call (Test System: AMES SALMONELLA TYPHIMURIUM, Strain/Indicator: TA98, Metabolic Activation: NONE) was “active; positive”, the mutagenic call (Test System: AMES SALMONELLA TYPHIMURIUM, Strain/Indicator: TA98, Metabolic Activation: NONE, Method: PREINCUBATION) was “active; positive” and the mutagenic call (Test System: AMES SALMONELLA TYPHIMURIUM, Strain/Indicator: TA98, Metabolic Activation: NONE, Method: STANDARD PLATE) was “active; positive”. For the same compound, the mutagenic call (Test System: AMES SALMONELLA TYPHIMURIUM, Strain/Indicator: TA98, Metabolic Activation: PEA APICAL BUD S-9, Method: PREINCUBATION) was “active; positive”, the mutagenic call (Test System: AMES SALMONELLA TYPHIMURIUM, Strain/Indicator: TA98, Metabolic Activation: PEA APICAL BUD S-9, Method: STANDARD PLATE) was “active; positive” and the mutagenic call (Test System: AMES SALMONELLA TYPHIMURIUM, Strain/Indicator: TA98, Metabolic Activation: RAT, LIVER, S-9, AROCLOR 1254) was “active; positive”. The mutagenic call (Test System: AMES SALMONELLA TYPHIMURIUM, Strain/Indicator: TA98, Metabolic Activation: RAT, LIVER, S-9, AROCLOR 1254, Method: PREINCUBATION) was “active; positive”, the mutagenic call (Test System: AMES SALMONELLA TYPHIMURIUM, Strain/Indicator: TA98, Metabolic Activation: RAT, LIVER, S-9, AROCLOR 1254, Method: STANDARD PLATE) was “active; positive” and the mutagenic call (Test System: AMES SALMONELLA TYPHIMURIUM, Strain/Indicator: TA98, Metabolic Activation: RAT, LIVER, S-9, PHENOBARBITAL AND BETA-NAPHTHOFLAVONE, Method: PREINCUBATION) was “active; positive”. The mutagenic call (Test System: AMES SALMONELLA TYPHIMURIUM, Strain/Indicator: TA98, Metabolic Activation: RAT, LIVER, S-9, SODIUM PHENOBARBITAL AND 5,6-BENZOFLAVONE, Method: PREINCUBATION) was “active; positive”, the mutagenic call (Test System: AMES SALMONELLA TYPHIMURIUM, Strain/Indicator: TA98, Metabolic Activation: ZEA MAYS, S-2, Method: STANDARD PLATE) was “active; positive” and the mutagenic call (Test System: AMES SALMONELLA TYPHIMURIUM, Strain/Indicator: TA100(NR), Metabolic Activation: NONE, Method: PREINCUBATION) was “active; positive”. The mutagenic call (Test System: AMES SALMONELLA TYPHIMURIUM, Strain/Indicator: TA100(NR), Metabolic Activation: RAT, LIVER, S-9, AROCLOR 1254, Method: PREINCUBATION) was “active; positive”, the mutagenic call (Test System: AMES SALMONELLA TYPHIMURIUM, Strain/Indicator: TA100, Metabolic Activation: NONE, Method: PREINCUBATION) was “active; positive” and the mutagenic call (Test System: AMES SALMONELLA TYPHIMURIUM, Strain/Indicator: TA100, Metabolic Activation: NONE, Method: STANDARD PLATE) was “active; positive”. For the same compound, the mutagenic call (Test System: AMES SALMONELLA TYPHIMURIUM, Strain/Indicator: TA100, Metabolic Activation: PEA APICAL BUD S-9, Method: PREINCUBATION) was “active; positive”, the mutagenic call (Test System: AMES SALMONELLA TYPHIMURIUM, Strain/Indicator: TA100, Metabolic Activation: PEA APICAL BUD S-9, Method: STANDARD PLATE) was “active; positive” and the mutagenic call (Test System: AMES SALMONELLA TYPHIMURIUM, Strain/Indicator: TA100, Metabolic Activation: RAT, LIVER, S-9, AROCLOR 1254, Method: PREINCUBATION) was “active; positive”. The mutagenic call (Test System: AMES SALMONELLA TYPHIMURIUM, Strain/Indicator: TA100, Metabolic Activation: RAT, LIVER, S-9, AROCLOR 1254, Method: STANDARD PLATE) was “active; positive”, the mutagenic call (Test System: AMES SALMONELLA TYPHIMURIUM, Strain/Indicator: TA100, Metabolic Activation: RAT, LIVER, S-9, PHENOBARBITAL AND BETA-NAPHTHOFLAVONE, Method: PREINCUBATION) was “active; positive” and the mutagenic call (Test System: AMES SALMONELLA TYPHIMURIUM, Strain/Indicator: TA100, Metabolic Activation: ZEA MAYS, S-2, Method: STANDARD PLATE) was “active; positive”. The mutagenic call (Test System: AMES SALMONELLA TYPHIMURIUM, Strain/Indicator: TA104, Metabolic Activation: NONE, Method: STANDARD PLATE) was “active; positive”, the mutagenic call (Test System: AMES SALMONELLA TYPHIMURIUM, Strain/Indicator: TA4001, Metabolic Activation: NONE, Method: STANDARD PLATE) was “inactive; negative” and the mutagenic call (Test System: AMES SALMONELLA TYPHIMURIUM, Strain/Indicator: TA4006, Metabolic Activation: NONE, Method: STANDARD PLATE) was “active; positive”. For the same compound, the mutagenic call (Test System: AMES SALMONELLA TYPHIMURIUM, Strain/Indicator: TA7001, Metabolic Activation: NONE, Method: STANDARD PLATE) was “inactive; negative”, the mutagenic call (Test System: AMES SALMONELLA TYPHIMURIUM, Strain/Indicator: TA7001, Metabolic Activation: RAT LIVER S-9, AROCLOR 1254, Method: STANDARD PLATE) was “inactive; negative” and the mutagenic call (Test System: AMES SALMONELLA TYPHIMURIUM, Strain/Indicator: TA7002, Metabolic Activation: NONE, Method: STANDARD PLATE) was “active; positive”. The mutagenic call (Test System: AMES SALMONELLA TYPHIMURIUM, Strain/Indicator: TA7002, Metabolic Activation: RAT LIVER S-9, AROCLOR 1254, Method: STANDARD PLATE) was “active; positive”, the mutagenic call (Test System: AMES SALMONELLA TYPHIMURIUM, Strain/Indicator: TA7003, Metabolic Activation: NONE, Method: STANDARD PLATE) was “inactive; negative” and the mutagenic call (Test System: AMES SALMONELLA TYPHIMURIUM, Strain/Indicator: TA7004, Metabolic Activation: NONE, Method: STANDARD PLATE) was “active; positive”. For the same compound, the mutagenic call (Test System: AMES SALMONELLA TYPHIMURIUM, Strain/Indicator: TA7004, Metabolic Activation: RAT LIVER S-9, AROCLOR 1254, Method: STANDARD PLATE) was “active; positive”, the mutagenic call (Test System: AMES SALMONELLA TYPHIMURIUM, Strain/Indicator: TA7005, Metabolic Activation: NONE, Method: STANDARD PLATE) was “active; positive” and the mutagenic call (Test System: AMES SALMONELLA TYPHIMURIUM, Strain/Indicator: TA7005, Metabolic Activation: RAT LIVER S-9, AROCLOR 1254, Method: STANDARD PLATE) was “active; positive”. For the same compound, the mutagenic call (Test System: Ames Salmonella typhimurium, Strain/Indicator: TA97a, Metabolic Activation: None, Method: Preincubation) was “active; positive (decrease in mutagenicity when 0.99-15.90 mg/plate of chloroform extrac”, the mutagenic call (Test System: Ames Salmonella typhimurium, Strain/Indicator: TA98, Metabolic Activation: None, Method: Preincubation) was “active; positive (decrease in mutagenicity when 0.99-15.90 mg/plate of chloroform extrac; also recorded: active; positive (dose related decrease in mutagenicity when 1.82-21.90 mg/plate of meth” and the mutagenic call (Test System: CHINESE HAMSTER OVARY, Strain/Indicator: CHO-K1-BH4 (HGPRT)/6-THIOGUANINE, Metabolic Activation: NONE) was “inactive; negative”. For the same compound, the mutagenic call (Test System: CHINESE HAMSTER OVARY, Strain/Indicator: CHO-K1-BH4 (HGPRT)/6-THIOGUANINE, Metabolic Activation: S-9) was “inactive; negative”, the mutagenic call (Test System: E. COLI, Strain/Indicator: WP2 UVRA, Metabolic Activation: HAMSTER, LIVER, S-9, AROCLOR 1254, Method: STANDARD PLATE) was “inactive; negative” and the mutagenic call (Test System: E. COLI, Strain/Indicator: WP2 UVRA, Metabolic Activation: HAMSTER, LIVER, S-9, Method: STANDARD PLATE) was “inactive; negative”. The mutagenic call (Test System: E. COLI, Strain/Indicator: WP2 UVRA, Metabolic Activation: MOUSE, LIVER, S-9, AROCLOR 1254, Method: STANDARD PLATE) was “inactive; negative”, the mutagenic call (Test System: E. COLI, Strain/Indicator: WP2 UVRA, Metabolic Activation: MOUSE, LIVER, S-9, Method: STANDARD PLATE) was “inactive; negative” and the mutagenic call (Test System: E. COLI, Strain/Indicator: WP2 UVRA, Metabolic Activation: NONE, Method: STANDARD PLATE) was “inactive; negative”. The mutagenic call (Test System: E. COLI, Strain/Indicator: WP2 UVRA, Metabolic Activation: RAT, LIVER, S-9, AROCLOR 1254, Method: STANDARD PLATE) was “inactive; negative”, the mutagenic call (Test System: E. COLI, Strain/Indicator: WP2 UVRA, Metabolic Activation: RAT, LIVER, S-9, Method: STANDARD PLATE) was “inactive; negative” and the mutagenic call (Test System: MOUSE LYMPHOMA, Strain/Indicator: L5178Y (TK+/TK-), Metabolic Activation: NONE, Method: SUSPENSION/PLATE) was “active; positive”. The mutagenic call (Test System: MOUSE LYMPHOMA, Strain/Indicator: L5178Y (TK+/TK-), Metabolic Activation: RAT, LIVER, S-9, AROCLOR 1254, Method: SUSPENSION/PLATE) was “active; positive” and the mutagenic call (Test System: UDS RAT HEPATOCYTES, Strain/Indicator: THY INCORP, Metabolic Activation: NONE, Method: AUTORADIOGRAPHY (SERUM-FREE MEDIA)) was “active; positive”.
